Here are results for 35 molecules from US9359308B2, “Pyrazine kinase inhibitors” (Portola Pharmaceuticals, Inc., priority 2011, dated 2016).

Where only a bound is given, the exact number is not on record here.

For the experiment, the target named is T1, full length active recombinant SYK enzyme (Homo sapiens, UniProt P43405).
T1 construct: full length active recombinant SYK enzyme (Millipore, Calif.); purchased Millipore
Nature of the experiment: Inhibition of Syk tyrosine phosphorylation activity (LANCE TR-FRET kinase assay). It counts as biochemical. Conditions: activity in the Syk assays, class symbols. A digest of the protocol: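 1 nM full-length active recombinant SYK phosphorylated 550 nM biotin-DEEDYESP-OH with 100 μM ATP in 50 mM Tris pH 7.5, 5 mM MgCl2, 1 mM DTT and 3% DMSO for 1 h at room temperature. After EDTA quench, Eu-anti-phosphotyrosine/SA-APC TR-FRET was read after 1 h. IC50s came from non-linear regression.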
On the technique in general: TR-FRET usually uses a lanthanide donor and a delayed reading to cut background.
Broadly, the IC50 is the point on the concentration scale where inhibition reaches its midpoint. As to `CC[C@@H](Nc1cnc(C(N)=O)c(Nc2ccnc3ccccc23)n1)C(N)=O` [Example 370, (R)-5-(1-amino-1-oxobutan-2-ylamino)-3-(quinolin-4-ylamino)pyrazine-2-carboxamide], the IC50 lay in the range of 1 to 10 nM.
The same measure for `NC(=O)c1ncc(N[C@@H]2CCCC(F)(F)[C@@H]2N)nc1Nc1cccnc1` [Example 371, 5-((1R,2R)-2-amino-3,3-difluorocyclohexylamino)-3-(pyridin-3-ylamino)pyrazine-2-carboxamide]: 10 to 100 nM; for `NC(=O)c1ncc(N[C@@H]2CCCC(F)(F)[C@@H]2N)nc1Nc1cccc(F)c1` [Example 372, 5-((1R,2R)-2-amino-3,3-difluorocyclohexylamino)-3-(3-fluorophenylamino)pyrazine-2-carboxamide]: 10 to 100 nM; for `CC[C@@H](Nc1cnc(C(N)=O)c(Nc2cc(C)ns2)n1)C(N)=O` [Example 373, (R)-5-(1-amino-1-oxobutan-2-ylamino)-3-(3-methylisothiazol-5-ylamino)pyrazine-2-carboxamide]: 1 to 10 nM.
The same measure for `Cc1cc(Nc2nc(N[C@H](CC3CC3)C(N)=O)cnc2C(N)=O)sn1` [Example 374, (R)-5-(1-amino-3-cyclopropyl-1-oxopropan-2-ylamino)-3-(3-methylisothiazol-5-ylamino)pyrazine-2-carboxamide]: 1 to 10 nM.
The same measure for `CC[C@@H](Nc1cnc(C(N)=O)c(Nc2cccc3ncccc23)n1)C(N)=O` [Example 375, (R)-5-(1-amino-1-oxobutan-2-ylamino)-3-(quinolin-5-ylamino)pyrazine-2-carboxamide]: 1 to 10 nM; for `CC[C@@H](Nc1cnc(C(N)=O)c(Nc2ccc3cccnc3c2)n1)C(N)=O` [Example 376, (R)-5-(1-amino-1-oxobutan-2-ylamino)-3-(quinolin-7-ylamino)pyrazine-2-carboxamide]: 1 to 10 nM.
As for `CC[C@@H](Nc1cnc(C(N)=O)c(Nc2cccc3ccncc23)n1)C(N)=O` [Example 377, (R)-5-(1-amino-1-oxobutan-2-ylamino)-3-(isoquinolin-8-ylamino)pyrazine-2-carboxamide], the IC50 fell in the range of 100 to 1000 nM.
On to `CC[C@@H](Nc1cnc(C(N)=O)c(Nc2cccc3cnccc23)n1)C(N)=O` [Example 378, (R)-5-(1-amino-1-oxobutan-2-ylamino)-3-(isoquinolin-5-ylamino)pyrazine-2-carboxamide], for which the IC50 lay in the range of 10 to 100 nM.
For `CC[C@@H](Nc1cnc(C(N)=O)c(Nc2ccc3ccncc3c2)n1)C(N)=O` [Example 379, (R)-5-(1-amino-1-oxobutan-2-ylamino)-3-(isoquinolin-7-ylamino)pyrazine-2-carboxamide] the value was 1 to 10 nM; for `CC[C@@H](Nc1cnc(C(N)=O)c(Nc2cnc3ncccc3c2)n1)C(N)=O` [Example 380, (R)-3-(1,8-naphthyridin-3-ylamino)-5-(1-amino-1-oxobutan-2-ylamino)pyrazine-2-carboxamide], 1 to 10 nM.
For the molecule `CC[C@@H](Nc1cnc(C(N)=O)c(Nc2cnc3ccncc3c2)n1)C(N)=O` [Example 381, (R)-3-(1,6-naphthyridin-3-ylamino)-5-(1-amino-1-oxobutan-2-ylamino)pyrazine-2-carboxamide], the IC50 was 1 to 10 nM.
For `NC(=O)CNc1cnc(C(N)=O)c(Nc2ccc3ncccc3c2)n1` [Example 382, 5-(2-amino-2-oxoethylamino)-3-(quinolin-6-ylamino)pyrazine-2-carboxamide] the value was 10 to 100 nM; for `CC[C@@H](Nc1cnc(C(N)=O)c(Nc2cnc3cccnc3c2)n1)C(N)=O` [Example 383, (R)-3-(1,5-naphthyridin-3-ylamino)-5-(1-amino-1-oxobutan-2-ylamino)pyrazine-2-carboxamide], 10 to 100 nM.
Take `NC(=O)c1ncc(N[C@@H]2CCCC(F)(F)[C@@H]2N)nc1Nc1ccc2cccnc2c1` [Example 384, 5-((1R,2R)-2-amino-3,3-difluorocyclohexylamino)-3-(quinolin-7-ylamino)pyrazine-2-carboxamide]: the IC50 fell in the range of 10 to 100 nM.
For `NC(=O)c1ncc(N[C@@H]2CCCC(F)(F)[C@@H]2N)nc1Nc1ccc2ccncc2c1` [Example 385, 5-((1R,2R)-2-amino-3,3-difluorocyclohexylamino)-3-(isoquinolin-7-ylamino)pyrazine-2-carboxamide] the value was 1 to 10 nM; for `CC[C@@H](Nc1cnc(C(N)=O)c(Nc2ccnc3ncccc23)n1)C(N)=O` [Example 386, (R)-3-(1,8-naphthyridin-4-ylamino)-5-(1-amino-1-oxobutan-2-ylamino)pyrazine-2-carboxamide], 1 to 10 nM; for `NC(=O)c1ncc(N[C@@H]2CCCC(F)(F)[C@@H]2N)nc1Nc1cc(-c2ccccc2)no1` [Example 387, 5-((1R,2R)-2-amino-3,3-difluorocyclohexylamino)-3-(3-phenylisoxazol-5-ylamino)pyrazine-2-carboxamide], more than 1000 nM.
For the molecule `NC(=O)c1ncc(N[C@H](Cc2c[nH]c3ccccc23)C(N)=O)nc1Nc1ccc2ncccc2c1` [Example 388, (R)-5-(1-amino-3-(1H-indol-3-yl)-1-oxopropan-2-ylamino)-3-(quinolin-6-ylamino)pyrazine-2-carboxamide], the IC50 was 1 to 10 nM.
For `Cc1cc(Nc2nc(N[C@H](Cc3c[nH]c4ccccc34)C(N)=O)cnc2C(N)=O)sn1` [Example 389, (R)-5-(1-amino-3-(1H-indol-3-yl)-1-oxopropan-2-ylamino)-3-(3-methylisothiazol-5-ylamino)pyrazine-2-carboxamide] the value was 1 to 10 nM; for `Cc1cc(Nc2nc(N[C@H](CC3CCCCC3)C(N)=O)cnc2C(N)=O)sn1` [Example 390, (R)-5-(1-amino-3-cyclohexyl-1-oxopropan-2-ylamino)-3-(3-methylisothiazol-5-ylamino)pyrazine-2-carboxamide], 10 to 100 nM.
In the case of `Cn1ccc2cc(Nc3nc(N[C@@H]4CCCC(F)(F)[C@@H]4N)cnc3C(N)=O)ccc21` [Example 391, 5-((1R,2R)-2-amino-3,3-difluorocyclohexylamino)-3-(1-methyl-1H-indol-5-ylamino)pyrazine-2-carboxamide], the IC50 lay within 1 to 10 nM.
For `Cn1ccc2c(Nc3nc(N[C@@H]4CCCC(F)(F)[C@@H]4N)cnc3C(N)=O)cccc21` [Example 392, 5-((1R,2R)-2-amino-3,3-difluorocyclohexylamino)-3-(1-methyl-1H-indol-4-ylamino)pyrazine-2-carboxamide], the half-maximal inhibitory concentration (IC50) is 1 to 10 nM.
Take `CC[C@@H](Nc1cnc(C(N)=O)c(Nc2ccc3c(ccn3C)c2)n1)C(N)=O` [Example 393, (R)-5-(1-amino-1-oxobutan-2-ylamino)-3-(1-methyl-1H-indol-5-ylamino)pyrazine-2-carboxamide]: the IC50 lay in the range of 1 to 10 nM.
For `CC[C@@H](Nc1cnc(C(N)=O)c(Nc2cccc3c2ccn3C)n1)C(N)=O` [Example 394, (R)-5-(1-amino-1-oxobutan-2-ylamino)-3-(1-methyl-1H-indol-4-ylamino)pyrazine-2-carboxamide] the value was 1 to 10 nM; for `Cc1cc(Nc2nc(N[C@@H](C(N)=O)c3ccccc3)cnc2C(N)=O)sn1` [Example 395, (R)-5-(2-amino-2-oxo-1-phenylethylamino)-3-(3-methylisothiazol-5-ylamino)pyrazine-2-carboxamide], 1 to 10 nM.
The same measure for `Cn1ccc2cc(Nc3nc(N[C@H](CC4CC4)C(N)=O)cnc3C(N)=O)ccc21` [Example 396, (R)-5-(1-amino-3-cyclopropyl-1-oxopropan-2-ylamino)-3-(1-methyl-1H-indol-5-ylamino)pyrazine-2-carboxamide]: 1 to 10 nM.
Turning to `Cn1ccc2c(Nc3nc(N[C@H](CC4CC4)C(N)=O)cnc3C(N)=O)cccc21` [Example 397, (R)-5-(1-amino-3-cyclopropyl-1-oxopropan-2-ylamino)-3-(1-methyl-1H-indol-4-ylamino)pyrazine-2-carboxamide], the IC50 was in the range of 1 to 10 nM.
For `Cc1cc(Nc2nc(N[C@H](CC(F)(F)F)C(N)=O)cnc2C(N)=O)sn1` [Example 398, (R)-5-(1-amino-4,4,4-trifluoro-1-oxobutan-2-ylamino)-3-(3-methylisothiazol-5-ylamino)pyrazine-2-carboxamide], the IC50 fell in the range of 1 to 10 nM.
For the molecule `Cc1cc(Nc2nc(N[C@H](CC[S+](C)[O-])C(N)=O)cnc2C(N)=O)sn1` (stereo partly drawn) [Example 399, 5-((2R)-1-amino-4-(methylsulfinyl)-1-oxobutan-2-ylamino)-3-(3-methylisothiazol-5-ylamino)pyrazine-2-carboxamide], the IC50 lay in the range of 100 to 1000 nM.
As for `Cc1cc(Nc2nc(N[C@H](CCS(C)(=O)=O)C(N)=O)cnc2C(N)=O)sn1` [Example 400, (R)-5-(1-amino-4-(methylsulfonyl)-1-oxobutan-2-ylamino)-3-(3-methylisothiazol-5-ylamino)pyrazine-2-carboxamide], the IC50 lay within 10 to 100 nM.
`Cc1cc(Nc2nc(NC3(C(N)=O)CCCCC3)cnc2C(N)=O)sn1` [Example 401, 5-(1-carbamoylcyclohexylamino)-3-(3-methylisothiazol-5-ylamino)pyrazine-2-carboxamide]: the IC50 was 10 to 100 nM.
For `COC[C@@H](Nc1cnc(C(N)=O)c(Nc2cc(C)ns2)n1)C(N)=O` [Example 402, (R)-5-(1-amino-3-methoxy-1-oxopropan-2-ylamino)-3-(3-methylisothiazol-5-ylamino)pyrazine-2-carboxamide] the value was 10 to 100 nM.
As for `CC[C@@H](Nc1cnc(C(N)=O)c(Nc2cc(-c3ccccc3)ns2)n1)C(N)=O` [Example 403, (R)-5-(1-amino-1-oxobutan-2-ylamino)-3-(3-phenylisothiazol-5-ylamino)pyrazine-2-carboxamide], the IC50 was in the range of 10 to 100 nM.
For the molecule `CC[C@@H](Nc1cnc(C(N)=O)c(Nc2ccc3ncncc3c2)n1)C(N)=O` [Example 404, (R)-5-(1-amino-1-oxobutan-2-ylamino)-3-(quinazolin-6-ylamino)pyrazine-2-carboxamide], the IC50 is 10 to 100 nM.
